Laboratory results as given in patent publication US20190125714A1, “CALPAIN INHIBITORS IN THE PREVENTION AND/OR TREATMENT OF VENTRICULAR REMODELLING” (FUNDAClÓ HOSPITAL UNIVERSITARI VALL D'HEBRON - INSTITUT DE …, priority 2016, published 2019).
Where two headings read alike, the source gives them in different places.

Tests used:
[1] = biological target: T1, matrix metalloproteinase-2 (MMP-2) (Rattus norvegicus, UniProt P33436); assay: MMP-2 gelatinolytic activity by gelatin zymography of myocardial extracts; format: biochemical; details: 5, 10 and 50 μM, incubated overnight at 37° C.
T1 construct: myocardial preparations obtained from rats reperfused for 21 days (control group); from tissue; host or cells: rat myocardium (extracts after 21 days of reperfusion)
T1 sequence (P33436 110-662): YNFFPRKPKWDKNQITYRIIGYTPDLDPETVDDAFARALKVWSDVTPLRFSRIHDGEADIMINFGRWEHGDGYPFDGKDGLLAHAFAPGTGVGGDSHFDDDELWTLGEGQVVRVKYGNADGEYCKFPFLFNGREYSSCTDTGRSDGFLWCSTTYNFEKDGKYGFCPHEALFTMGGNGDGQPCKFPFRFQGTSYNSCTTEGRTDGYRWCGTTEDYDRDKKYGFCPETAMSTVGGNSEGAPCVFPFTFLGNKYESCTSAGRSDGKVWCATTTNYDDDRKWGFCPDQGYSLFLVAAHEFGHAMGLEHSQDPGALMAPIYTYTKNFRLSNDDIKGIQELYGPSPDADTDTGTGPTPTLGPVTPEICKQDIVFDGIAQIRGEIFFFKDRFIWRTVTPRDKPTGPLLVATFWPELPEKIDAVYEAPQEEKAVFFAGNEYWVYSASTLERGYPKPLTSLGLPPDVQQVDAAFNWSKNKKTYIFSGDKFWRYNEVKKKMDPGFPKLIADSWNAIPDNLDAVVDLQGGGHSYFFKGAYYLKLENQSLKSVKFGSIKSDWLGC
Procedure: Activity of MMP-2 was evaluated by gelatin zymography. Briefly, myocardial preparations obtained from rats reperfused for 21 days (control group) were run on a 10% polyacrylamide gel copolymerized with 1.5 mg/ml gelatin. After washing with 2.5% Triton X-100, gels were cut into strips and incubated separately, overnight, in zymography buffer with SNJ-1945 at the concentrations of 5, 10 and 50 μM, DMSO as a vehicle control or the selective MMP inhibitor ONO-4817 (N-[(1 S,3S)-1-[(Ethoxymethoxy)methyl]-4-(hydroxyamino)-3-methyl-4-oxobutyl]-4-phenoxybenzamide) (50 μM, Tocris). It was further examined MMP-2 activity (as % of 0 μM) in samples prepared from animals receiving SNJ-1945 by oral gavage and reperfused for 21 days (Chronic group). Gels were stained in 0.25% Coomassie Brilliant blue G, 40% methanol, and gelatinolytic activities quantitated after destaining.

Sprague-Dawley rats [2] = assay: Inflammatory cell infiltration (CD68 immunohistochemistry) in hearts reperfused for 3 days; format: in vivo, rat; details: 3 days of reperfusion
Procedure: Sprague-Dawley rats (250-300 g) were premedicated with atropine (0.05 mg/kg ip), anaesthetized with ketamine (75 mg/kg ip) and xylazine (10 mg/kg ip), and mechanically ventilated (Inspira ASV, Harvard Apparatus). Anaesthesia was maintained with 1-2% isoflurane and body temperature controlled with a heating pad to 36-37° C. The heart was exposed through the fourth intercostal space and the left anterior descending coronary artery (LAD) ligated using 6/0 silk suture (Ethicon Endo-surgery, OH, USA), 1 mm distal to left atrial appendage. After occlusion for 30 min, the suture was loosened to start reperfusion and buprenorphine (0.05 mg/kg per 6 h, subcutaneously) was given for 48 h. Mice with lack of ST-elevation during ischemia or lack of ST-recovery at reperfusion were excluded from further evaluation.
Macrophage infiltration in the non-infarcted myocardium was analyzed by immunohistochemistry in hearts reperfused for 3 days (n=4 per group).
Myocardial sections were exposed to H2O2/methanol, levamisol (DakoCytomation) and avidin/biotin blocking (Vector Laboratories) to neutralize endogenous peroxidase, phosphatase and biotin, respectively. Sections were probed with CD68 (AbD Serotec) for monocytes/macrophages, incubated with a biotinylated secondary antibody (1:200, ABC Peroxidase standard stainig kit, Thermo Scientific) in 2% normal blocking serum and visualized using 3, 3′-diaminobenzidine (DAB, Sigma). Six random photomicrographs from the infarct area and six from the non-infarcted area for each heart (n=6 per group) were taken at 200× magnification.

calpain [3] = assay: Isolated rat hearts subjected to ischemia/reperfusion, calpain-specific α-fodrin breakdown products; details: perfusion of isolated rat hearts, data not shown
Sprague-Dawley rats [4] = details: for Attenuation of scar area (LV area stained with picrosirius red): 21 days of reperfusion
[5] = added to the cardioplegic solution and during 60 min of reperfusion; cited from earlier work
calpain [6] = assay: Proteolysis of α-fodrin after oral gavage, 60 minutes of reperfusion; format: in vivo, rat; details: 120 mg/kg orally (gavage); after 60 minutes of reperfusion
Sprague-Dawley rats [7] = assay: Myocardial hypertrophy and fibrosis induced by isoproterenol; format: in vivo, rat; details: 7 days
Procedure: Chronic administration of isoproterenol is the most common small animal model in the study of myocardial remodeling. In order to study the effect of calpain inhibition in AVR of a different cause than myocardial infarction, myocardial hypertrophy and fibrosis induced by isoproterenol.
The calpain inhibitor SNJ-1945 was co-administered orally once a day to male Sprague-Dawley rats that received 5 mg/Kg/day isoproterenol (ISO) […] for 1 week. Assayed groups were as follows:
Isoproterenol group (ISO): administration of isoproterenol as a single daily subcutaneous injection for 7 consecutive days.
SNJ-1945 treated group (SNJ+ISO): co-administration of SNJ-1945 (orally) and isoproterenol (subcutaneous) for 7 consecutive days.
Hearts were obtained and compared with vehicle-treated and ISO treated rats not receiving the calpain inhibitor.
Echocardiography was performed using a Vivid portable ultrasound system with a i12L-RS 12 MHz transducer (GE Healthcare) as described earlier (Poncelas, Inserte et al. 2015, “Obesity induced by high fat diet attenuates postinfarct myocardial remodeling and dysfunction in adult B6D2F1 mice”, Journal of Molecular and Cellular Cardiology-2015, vol. no. 84, pp.: 154-161).
For the PCR, total RNA was extracted from ischemic and non-ischemic area of heart samples of the three assayed groups using TRIsure™ reagent (BIOLINE, UK) following the manufacturer's protocol. Quantitative RT-PCR was performed using Taqman universal PCR master mix (Applied Biosystems, USA). The amplification program consisted of 50° C. for 2 minutes, 95° C. for 10 minutes and 40 cycles of 95° C. for 15 sec and 60° C. for 1 minutes and was performed in a 7900HT Fast Real-Time PCR System (Applied Biosystems, USA). Primers used for ANP, BNP, collagen I, Myh6, Myh7, and […] were purchased from Thermofisher and were those in the following Gene Expression Assays (Rn00561661_m1, Rn04219558_g1, Rn01463848_m1, Rn00691721_g1, Rn01488777_g1, and Rn00572010_m1, respectively, reference to assays retrievable from Thermofisher catalogue at Mar. 1, 2017; https://www.thermofisher.com/order/genome-databaseldetails/gene-expression/).

[8] = administered at the start (onset) of reperfusion; cited from earlier work
[9] = intravenously before initiating ischemia and during a reperfusion of 6 hours; cited from earlier work
[10] = SNJ-1945 orally once a day with isoproterenol 5 mg/Kg/day
[11] = oral co-administration with ISO

For `COCCOCCOC(=O)N[C@@H](CC(C)C)C(=O)N[C@@H](Cc1ccccc1)C(=O)C(=O)NC1CC1` [SNJ-1945, ((1S)-1-((((1S)-1-benzyl-2,3-dioxo-3-(cyclopropylamino)-propyl)amino)carbonyl)-3-methylbutyl)carbamic acid 5-methoxy-3-oxapentyl ester], the “MMP-2 activity (gelatinolytic)” value [1] was “does not inhibit”, the “Infiltration of monocytes/macrophages: acute and chronic treatments combined” value (Sprague-Dawley rats [2]; Ac+Chr group, P<0.001) was “no significant additive effect” and the “Infiltration of monocytes/macrophages (CD68+) in the ischemic area” value (Sprague-Dawley rats [2]; Acute group, P=0.002) was “attenuate”. For the same compound, the “Infiltration of monocytes/macrophages (CD68+) in the non-ischemic area” value (Sprague-Dawley rats [2]; Acute group, P=0.046) was “attenuate”, the “Infiltration of monocytes/macrophages (CD68+) in the non-ischemic area” value (Sprague-Dawley rats [2]; Chronic group, P=0.001) was “attenuate” and the “Infiltration of monocytes/macrophages (CD68+) in the ischemic area” value (Sprague-Dawley rats [2]; Chronic group, P=0.028) was “attenuate”. For the same compound, the “Calpain-specific α-fodrin breakdown products (calpain inhibition)” value (calpain [3]) was “dose-dependent reduction”, the “LV dilation and dysfunction (echocardiography: LVEDD, LVESD, EF)” value (“LV dilation and dysfunction” for short) (Sprague-Dawley rats [4]; Ac+Chr group: acute ip plus oral 14 days, measured at 1 week of reperfusion vs control) was “significantly attenuated” and the “Attenuation of scar area (LV area stained with picrosirius red)” value (from here on “Attenuation of scar area”) (Sprague-Dawley rats [4]; Ac+Chr group, P=0.003) was 33.7%. The “Levels of α-SMA (marker of fibroblast activation, western-blot)” value (Sprague-Dawley rats [4]; Ac+Chr group, P=0.009) was “reduced”, the “Interstitial fibrosis, acute and chronic phase combined” value (Sprague-Dawley rats [4]; Ac+Chr group, P=0.016) was “No further reduction” and the “β-MHC protein levels (western-blot, relative to GAPDH)” value (Sprague-Dawley rats [4]; Ac+Chr group, P=0.019) was “attenuated”. For the same compound, the “Cardiomyocyte hypertrophy (cross-sectional area, non-ischemic myocardium)” value (Sprague-Dawley rats [4]; Ac+Chr group, P=0.021) was “significantly reduced”, the “LV dilatation, ejection fraction and scar area: combination vs individual treatments” value (Sprague-Dawley rats [4]; Ac+Chr vs acute or chronic alone) was “did not result in a statistically significant improvement” and the “Hypertrophy markers: additive effect when both treatments were combined” value (Sprague-Dawley rats [4]; Ac+Chr vs single treatments) was “No significant additive effect”. For the same compound, the “Cardiomyocyte hypertrophy (cross-sectional area, non-ischemic myocardium)” value (Sprague-Dawley rats [4]; Acute group) was “not acute”, the “β-MHC protein levels (western-blot, relative to GAPDH)” value (Sprague-Dawley rats [4]; Acute group) was “attenuated only in groups treated chronically” and the “Attenuation of scar area” value (Sprague-Dawley rats [4]; Acute group, 120 mg/kg ip at reperfusion, P=0.002) was 29.1%. The “LV dilation and dysfunction” value (Sprague-Dawley rats [4]; Acute group: 120 mg/kg intraperitoneally 5 min before reperfusion, measured at 1 week of reperfusion vs control) was “significantly attenuated”, the “Interstitial collagen deposition in the non-infarcted area” value (Sprague-Dawley rats [4]; Acute group, P=0.109) was “not acute treatment” and the “Attenuation of scar area” value (Sprague-Dawley rats [4]; Chronic group, 120 mg/kg oral 14 days from 24 h of reperfusion, P=0.036) was 22.7%. The “LV dilation and dysfunction” value (Sprague-Dawley rats [4]; Chronic group: 120 mg/kg orally over 14 days starting after 24 h of reperfusion, at 21 days of reperfusion vs control) was “significantly attenuated”, the “Levels of α-SMA (marker of fibroblast activation, western-blot)” value (Sprague-Dawley rats [4]; Chronic group, P=0.012) was “reduced” and the “Interstitial collagen deposition in the non-infarcted area” value (Sprague-Dawley rats [4]; Chronic group, P=0.029) was “reduced”. For the same compound, the “β-MHC protein levels (western-blot, relative to GAPDH)” value (Sprague-Dawley rats [4]; Chronic group, P=0.036) was “attenuated”, the “Cardiomyocyte hypertrophy (cross-sectional area, non-ischemic myocardium)” value (Sprague-Dawley rats [4]; Chronic group, P=0.041) was “significantly reduced” and the “Echocardiographic parameters, acute vs chronic treatment” value (Sprague-Dawley rats [4]; at the end of the experiment (21 days)) was “No significant differences”. For the same compound, the “Survival rate between groups” value (Sprague-Dawley rats [4]; control, acute, chronic, Ac+Chr, overall mortality rate 12.5%) was “no differences”, the “Left ventricular dysfunction after cardioplegic arrest” value [5] was “prevents left ventricular dysfunction” and the “Proteolisis of α-fodrin” value (calpain [6]) was “significantly reduced”. The “Increase in heart weight induced by isoproterenol” value (Sprague-Dawley rats [7]; [10]) was “reduces the increase”, the “Increase in interventricular wall (IVSWT) thickness induced by isoproterenol, echocardiography” value (Sprague-Dawley rats [7]; [10]) was “reduces the increase” and the “Increase in posterior wall (PWT) thickness induced by isoproterenol, echocardiography” value (Sprague-Dawley rats [7]; [10]) was “reduces the increase”. For the same compound, the “ANP mRNA levels (PCR)” value (Sprague-Dawley rats [7]; [11]) was “reduced”, the “BNP mRNA levels (PCR)” value (Sprague-Dawley rats [7]; [11]) was “reduced” and the Calpain activation (Sprague-Dawley rats [7]; [11]) was “attenuated”. The Cardiomyocyte crossectional area (Sprague-Dawley rats [7]; [11]) was “reduced”, the “Expression of TGFβ induced by ISO (PCR)” value (Sprague-Dawley rats [7]; [11]) was “significantly reduced” and the “Expression of collagen I induced by ISO (PCR)” value (Sprague-Dawley rats [7]; [11]) was “significantly reduced”. The “Intraventricular collagen deposition induced by ISO” value (Sprague-Dawley rats [7]; [11]) was “significantly reduced” and the “β-MHC/α-MHC ratio (PCR)” value (Sprague-Dawley rats [7]; [11]) was “reduced”.
For `CCN(CC)Cc1ccc(/C=C/c2ccccc2C(=O)NC(Cc2ccccc2)C(=O)C(N)=O)cc1` (centres unmarked) [A-705253], the Cardioprotective effect [8] is given as “cardioprotective effect”, the “Hemodynamic and contractile function” value [9] is given as “improved” and the Infarct size [9] is given as “reduced”.
